Consider 11 compounds from ChEMBL document CHEMBL4257514, “Design and synthesis of novel 1,3,5-triphenyl pyrazolines as potential anti-inflammatory agents through allosteric inhibition of protein kinase Czeta (PKCζ)” (Medchemcomm, 2018).

Activity calls are given as the source filed them. The calls are words filed in the database; no cut-off is given here.

Series [1] has as its target T1, Protein kinase C iota type (Homo sapiens) (UniProt P41743).
T1 sequence (whole entry): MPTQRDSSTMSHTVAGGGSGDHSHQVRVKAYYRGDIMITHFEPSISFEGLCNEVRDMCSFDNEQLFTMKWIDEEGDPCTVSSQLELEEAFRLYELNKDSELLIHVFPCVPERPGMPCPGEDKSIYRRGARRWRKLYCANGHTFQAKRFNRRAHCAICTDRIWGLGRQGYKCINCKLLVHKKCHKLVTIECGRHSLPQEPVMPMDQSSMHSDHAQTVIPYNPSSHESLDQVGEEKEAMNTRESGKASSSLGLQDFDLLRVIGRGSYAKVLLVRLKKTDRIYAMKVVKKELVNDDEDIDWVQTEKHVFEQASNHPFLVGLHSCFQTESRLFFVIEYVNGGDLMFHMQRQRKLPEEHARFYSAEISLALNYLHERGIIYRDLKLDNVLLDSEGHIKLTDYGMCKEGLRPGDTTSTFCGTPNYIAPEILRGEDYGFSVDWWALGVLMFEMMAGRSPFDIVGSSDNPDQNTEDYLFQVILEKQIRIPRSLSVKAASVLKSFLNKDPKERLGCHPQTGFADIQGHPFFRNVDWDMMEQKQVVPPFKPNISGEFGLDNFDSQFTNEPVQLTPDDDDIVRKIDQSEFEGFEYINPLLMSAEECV
Description: Inhibition of recombinant GST-fused PKCiota (unknown origin) expressed in HEK293 cells at 20 uM using myelin basic protein as substrate measured after 40 mins in presence of [gamma32P]ATP by phosphorimaging analysis relative to control.

The target in series [2] is T2, Protein kinase C zeta type (Homo sapiens, UniProt Q05513).
T2 sequence (Q05513 whole entry): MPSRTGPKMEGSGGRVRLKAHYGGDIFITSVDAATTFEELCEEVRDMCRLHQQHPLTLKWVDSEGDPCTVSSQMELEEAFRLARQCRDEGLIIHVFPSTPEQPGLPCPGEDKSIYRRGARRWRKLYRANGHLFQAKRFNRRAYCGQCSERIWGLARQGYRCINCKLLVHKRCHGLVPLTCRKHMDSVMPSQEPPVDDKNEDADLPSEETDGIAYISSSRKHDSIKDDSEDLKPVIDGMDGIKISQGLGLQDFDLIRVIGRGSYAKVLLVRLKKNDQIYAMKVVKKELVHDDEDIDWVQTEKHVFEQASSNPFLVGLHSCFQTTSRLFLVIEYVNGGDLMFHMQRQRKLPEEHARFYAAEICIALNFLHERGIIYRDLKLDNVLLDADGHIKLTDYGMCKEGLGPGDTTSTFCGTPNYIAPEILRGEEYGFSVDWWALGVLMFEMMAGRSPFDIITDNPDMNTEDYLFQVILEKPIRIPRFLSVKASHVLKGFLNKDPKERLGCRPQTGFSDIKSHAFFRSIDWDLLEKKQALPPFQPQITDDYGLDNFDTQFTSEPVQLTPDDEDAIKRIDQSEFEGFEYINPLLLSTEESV
Description: Inhibition of recombinant GST-fused PKCzeta (unknown origin) expressed in HEK293 cells using myelin basic protein as substrate measured after 40 mins in presence of [gamma32P]ATP by phosphorimaging analysis.

Series [3] relates to RAW264.7. Kind of series: Inhibition of LPS-induced nitric oxide production in mouse RAW264.7 cells at 7.5 uM measured after 20 hrs by griess assay relative to control. In kind it is functional. The settings on record: RAW264.7, 20 h. (In general: Griess reagent forms a coloured azo dye with nitrite.)
The nature of series [4]: Cytotoxicity against mouse RAW264.7 cells assessed as live cells at 7.5 uM after 20 hrs by MTT assay relative to control. In kind it is cell-based. The settings on record: read-out: Activity. Background: Tetrazolium dyes change colour on reduction, which living cells bring about.
The species entered for series [5] is Homo sapiens. Kind of series: Selectivity ratio of IC50 for recombinant GST-fused PKCzeta Val297Leu mutant (unknown origin) expressed in HEK293 cells to IC50 for recombinant GST-fused PKCzeta (unknown origin) expressed in HEK293 cells. In kind it is cell-based.
Series [6] has as its target Protein kinase C zeta type (Homo sapiens, UniProt Q05513, V297L). Kind of series: Inhibition of recombinant GST-fused PKCzeta Val297Leu mutant (unknown origin) expressed in HEK293 cells using myelin basic protein as substrate measured after 40 mins in presence of [gamma32P]ATP by phosphorimaging analysis.
Series [7] concerns RAW264.7. Description: Inhibition of LPS-induced nitric oxide production in mouse RAW264.7 cells measured after 20 hrs by griess assay. It counts as functional, cell-based. Particulars: RAW264.7, 20 h.
Series [8] has as its target T3, 3-phosphoinositide-dependent protein kinase 1 (Homo sapiens) (UniProt O15530).
T3 sequence (whole entry): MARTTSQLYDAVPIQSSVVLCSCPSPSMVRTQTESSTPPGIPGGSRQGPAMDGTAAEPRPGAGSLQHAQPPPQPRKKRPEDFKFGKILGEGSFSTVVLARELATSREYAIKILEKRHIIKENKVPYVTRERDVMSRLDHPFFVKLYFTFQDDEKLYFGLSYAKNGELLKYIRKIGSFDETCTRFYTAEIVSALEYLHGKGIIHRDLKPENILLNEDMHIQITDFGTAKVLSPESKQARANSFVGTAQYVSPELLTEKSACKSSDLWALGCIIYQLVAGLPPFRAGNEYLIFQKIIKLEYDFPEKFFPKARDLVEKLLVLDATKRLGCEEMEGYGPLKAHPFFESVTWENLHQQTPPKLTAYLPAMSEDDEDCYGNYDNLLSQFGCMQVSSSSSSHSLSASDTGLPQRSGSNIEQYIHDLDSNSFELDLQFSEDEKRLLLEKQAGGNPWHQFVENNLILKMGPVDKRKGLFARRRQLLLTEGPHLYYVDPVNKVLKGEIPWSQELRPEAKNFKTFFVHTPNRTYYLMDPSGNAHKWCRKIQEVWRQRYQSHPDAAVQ
Kind of series: Inhibition of PDK1 (unknown origin) at 10 uM.

Series [9] has as its target Protein kinase C gamma type (Homo sapiens) (UniProt P05129). Kind of series: Inhibition of PKCgamma (unknown origin) at 10 uM.
Series [10] deals with Protein kinase C theta type (Homo sapiens) (UniProt Q04759). Description: Inhibition of PKCtheta (unknown origin) at 10 uM.
Protein kinase C theta type (Homo sapiens), sequence (Q04759 whole entry, looked up): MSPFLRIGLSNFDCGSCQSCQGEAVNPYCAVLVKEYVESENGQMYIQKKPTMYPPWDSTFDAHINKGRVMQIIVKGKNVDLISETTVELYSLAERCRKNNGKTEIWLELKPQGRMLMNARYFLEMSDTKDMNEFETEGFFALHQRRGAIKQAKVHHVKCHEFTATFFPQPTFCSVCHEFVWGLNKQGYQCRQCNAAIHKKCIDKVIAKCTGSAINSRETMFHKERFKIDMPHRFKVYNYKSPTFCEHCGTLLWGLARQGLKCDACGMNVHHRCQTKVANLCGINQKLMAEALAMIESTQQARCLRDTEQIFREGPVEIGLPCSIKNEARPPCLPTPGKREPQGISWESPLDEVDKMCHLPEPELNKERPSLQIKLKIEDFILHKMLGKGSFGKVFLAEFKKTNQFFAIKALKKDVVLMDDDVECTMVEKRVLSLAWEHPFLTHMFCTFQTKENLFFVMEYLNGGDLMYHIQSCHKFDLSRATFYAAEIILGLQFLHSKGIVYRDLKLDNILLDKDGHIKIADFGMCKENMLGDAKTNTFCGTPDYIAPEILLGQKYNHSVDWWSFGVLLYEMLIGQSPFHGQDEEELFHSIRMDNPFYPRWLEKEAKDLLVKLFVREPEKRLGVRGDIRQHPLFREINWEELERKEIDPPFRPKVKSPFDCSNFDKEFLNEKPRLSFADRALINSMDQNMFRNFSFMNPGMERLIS
Series [11] addresses T4, Protein kinase C epsilon type (Homo sapiens) (UniProt Q02156).
T4 sequence (whole entry): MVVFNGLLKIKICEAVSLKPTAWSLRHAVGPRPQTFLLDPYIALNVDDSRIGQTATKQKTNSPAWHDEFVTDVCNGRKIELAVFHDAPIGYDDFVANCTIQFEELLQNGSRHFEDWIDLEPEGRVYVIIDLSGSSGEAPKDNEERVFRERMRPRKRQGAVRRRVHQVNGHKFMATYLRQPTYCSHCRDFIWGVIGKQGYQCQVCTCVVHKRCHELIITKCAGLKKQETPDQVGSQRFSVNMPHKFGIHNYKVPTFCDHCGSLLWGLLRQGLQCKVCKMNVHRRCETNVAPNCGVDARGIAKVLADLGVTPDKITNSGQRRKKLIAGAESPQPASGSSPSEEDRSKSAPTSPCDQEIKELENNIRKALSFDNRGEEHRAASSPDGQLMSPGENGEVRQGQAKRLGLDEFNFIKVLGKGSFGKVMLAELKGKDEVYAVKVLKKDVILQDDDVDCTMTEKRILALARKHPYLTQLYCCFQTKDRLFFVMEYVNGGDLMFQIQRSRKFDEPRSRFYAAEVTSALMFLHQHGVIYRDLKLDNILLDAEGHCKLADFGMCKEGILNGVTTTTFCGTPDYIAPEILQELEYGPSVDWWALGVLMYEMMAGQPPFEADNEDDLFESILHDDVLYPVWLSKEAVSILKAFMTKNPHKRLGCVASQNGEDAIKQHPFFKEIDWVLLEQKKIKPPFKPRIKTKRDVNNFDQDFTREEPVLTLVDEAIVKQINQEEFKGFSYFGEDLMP
Kind of series: Inhibition of PKCepsilon (unknown origin) at 10 uM.

In series [12] the target is Protein kinase C eta type (Homo sapiens) (UniProt P24723). Kind of series: Inhibition of PKCeta (unknown origin) at 10 uM.
Series [13] deals with Protein kinase C beta type (Homo sapiens) (UniProt P05771). Description: Inhibition of PKCbeta1 (unknown origin) at 10 uM.
Protein kinase C beta type (Homo sapiens), sequence (P05771 2-671 limits assumed): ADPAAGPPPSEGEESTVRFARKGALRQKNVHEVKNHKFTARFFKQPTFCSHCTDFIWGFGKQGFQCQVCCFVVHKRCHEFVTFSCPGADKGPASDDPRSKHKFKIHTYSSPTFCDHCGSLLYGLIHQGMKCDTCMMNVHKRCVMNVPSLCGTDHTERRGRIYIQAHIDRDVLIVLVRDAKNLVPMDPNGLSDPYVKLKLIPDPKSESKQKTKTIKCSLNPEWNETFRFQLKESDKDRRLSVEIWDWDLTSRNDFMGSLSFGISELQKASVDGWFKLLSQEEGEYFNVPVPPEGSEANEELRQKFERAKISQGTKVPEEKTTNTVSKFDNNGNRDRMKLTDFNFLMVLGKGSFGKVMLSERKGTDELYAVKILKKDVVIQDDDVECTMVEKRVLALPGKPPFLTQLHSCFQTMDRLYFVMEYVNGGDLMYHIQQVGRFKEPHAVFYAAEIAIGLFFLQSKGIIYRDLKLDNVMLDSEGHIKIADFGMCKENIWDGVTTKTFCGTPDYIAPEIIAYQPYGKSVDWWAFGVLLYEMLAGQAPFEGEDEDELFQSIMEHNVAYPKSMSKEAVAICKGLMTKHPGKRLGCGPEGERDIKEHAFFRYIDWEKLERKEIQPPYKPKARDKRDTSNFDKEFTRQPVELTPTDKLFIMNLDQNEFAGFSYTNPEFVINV
Series [14] concerns the target Protein kinase C alpha type (Homo sapiens) (UniProt P17252). Description: Inhibition of PKCalpha (unknown origin) at 10 uM.
Series [15] concerns the target Protein kinase C beta type (Homo sapiens) (UniProt P05771). Description: Inhibition of PKCbeta2 (unknown origin) at 10 uM.
The target of series [16] is Protein kinase C delta type (Homo sapiens) (UniProt Q05655). Kind of series: Inhibition of PKCdelta (unknown origin) at 10 uM.
Protein kinase C delta type (Homo sapiens), sequence (Q05655 whole entry, looked up): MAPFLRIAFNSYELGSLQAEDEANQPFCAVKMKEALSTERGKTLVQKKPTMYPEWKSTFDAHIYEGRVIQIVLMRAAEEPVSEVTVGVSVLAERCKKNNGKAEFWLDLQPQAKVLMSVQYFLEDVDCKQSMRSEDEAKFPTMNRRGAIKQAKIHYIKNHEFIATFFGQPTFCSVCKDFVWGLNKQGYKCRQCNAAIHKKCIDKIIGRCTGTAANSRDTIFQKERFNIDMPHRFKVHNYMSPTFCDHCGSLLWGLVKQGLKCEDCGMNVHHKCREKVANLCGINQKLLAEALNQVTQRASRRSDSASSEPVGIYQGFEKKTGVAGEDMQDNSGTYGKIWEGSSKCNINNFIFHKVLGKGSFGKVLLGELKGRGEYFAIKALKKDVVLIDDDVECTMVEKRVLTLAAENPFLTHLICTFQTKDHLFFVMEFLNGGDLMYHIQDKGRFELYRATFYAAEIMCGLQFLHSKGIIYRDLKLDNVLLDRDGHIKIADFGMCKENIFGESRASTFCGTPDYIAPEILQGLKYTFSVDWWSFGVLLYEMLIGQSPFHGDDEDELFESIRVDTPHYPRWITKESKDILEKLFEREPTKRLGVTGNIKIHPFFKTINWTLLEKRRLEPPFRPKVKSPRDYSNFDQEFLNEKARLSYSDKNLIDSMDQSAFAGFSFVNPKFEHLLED
Series [17] addresses Serine/threonine-protein kinase N1 (Homo sapiens) (UniProt Q16512). Kind of series: Inhibition of PKN1 (unknown origin) at 10 uM.

Protein kinase C zeta type (Homo sapiens, UniProt Q05513, V297L), sequence (Q05513 whole entry V297L, the tested form may be a part): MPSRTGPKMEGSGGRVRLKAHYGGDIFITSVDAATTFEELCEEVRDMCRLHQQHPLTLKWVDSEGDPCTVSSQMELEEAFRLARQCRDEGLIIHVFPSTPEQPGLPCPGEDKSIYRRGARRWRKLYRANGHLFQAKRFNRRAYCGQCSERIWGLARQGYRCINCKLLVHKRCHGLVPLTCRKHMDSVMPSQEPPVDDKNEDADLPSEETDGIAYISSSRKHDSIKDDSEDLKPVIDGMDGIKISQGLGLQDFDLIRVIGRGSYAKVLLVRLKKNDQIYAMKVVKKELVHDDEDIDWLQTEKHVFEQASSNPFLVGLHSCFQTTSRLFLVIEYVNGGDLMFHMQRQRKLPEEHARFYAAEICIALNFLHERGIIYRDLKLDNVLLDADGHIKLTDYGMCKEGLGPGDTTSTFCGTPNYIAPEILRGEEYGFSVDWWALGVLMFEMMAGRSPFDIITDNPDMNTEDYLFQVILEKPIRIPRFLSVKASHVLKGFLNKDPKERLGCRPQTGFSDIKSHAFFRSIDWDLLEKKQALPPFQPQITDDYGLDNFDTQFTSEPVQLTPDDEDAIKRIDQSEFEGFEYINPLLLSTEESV
Serine/threonine-protein kinase N1 (Homo sapiens), sequence (Q16512 2-942 limits assumed): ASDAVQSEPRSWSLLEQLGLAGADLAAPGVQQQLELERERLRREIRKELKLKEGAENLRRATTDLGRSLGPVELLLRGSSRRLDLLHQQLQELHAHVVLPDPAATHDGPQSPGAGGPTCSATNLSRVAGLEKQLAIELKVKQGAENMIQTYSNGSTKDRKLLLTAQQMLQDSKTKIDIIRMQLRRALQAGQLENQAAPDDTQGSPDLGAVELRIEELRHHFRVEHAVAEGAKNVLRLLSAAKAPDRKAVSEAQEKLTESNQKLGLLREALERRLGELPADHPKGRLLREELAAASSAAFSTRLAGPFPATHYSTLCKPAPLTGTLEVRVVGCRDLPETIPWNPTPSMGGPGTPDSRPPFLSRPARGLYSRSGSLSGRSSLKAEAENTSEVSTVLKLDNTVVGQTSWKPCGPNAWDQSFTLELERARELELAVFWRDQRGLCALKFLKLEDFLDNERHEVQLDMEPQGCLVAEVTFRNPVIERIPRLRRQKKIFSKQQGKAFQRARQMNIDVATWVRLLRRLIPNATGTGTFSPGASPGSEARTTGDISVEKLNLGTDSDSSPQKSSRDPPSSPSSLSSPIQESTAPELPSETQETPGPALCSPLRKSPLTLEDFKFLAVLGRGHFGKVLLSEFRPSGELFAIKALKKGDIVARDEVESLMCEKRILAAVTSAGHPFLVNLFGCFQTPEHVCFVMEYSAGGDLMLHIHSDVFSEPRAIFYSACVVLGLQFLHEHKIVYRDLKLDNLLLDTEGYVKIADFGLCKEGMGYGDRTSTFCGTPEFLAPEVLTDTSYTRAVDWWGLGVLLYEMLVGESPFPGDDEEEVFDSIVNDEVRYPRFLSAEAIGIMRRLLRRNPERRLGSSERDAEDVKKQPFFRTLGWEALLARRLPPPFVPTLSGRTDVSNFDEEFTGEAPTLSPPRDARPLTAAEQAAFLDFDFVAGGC

Usually inhibition stands for how much of the control response was suppressed. One may read the IC50 as the concentration needed to halve the response being measured. For the compound `Oc1ccc(C2=NN(c3cccc(Cl)c3)C(c3ccc(Cl)cc3)C2)cc1` (stereo unspecified), in series [1], the inhibition is 22.8%. Moreover, the IC50 in series [2] was less than 0.1 µM. The compound further gave an inhibition at 7.5 µM in [3] of 42.8%. Besides, the viability at 20 h, 7.5 µM in [4] was 91%.

With `Oc1cccc(C2=NN(c3ccc(Cl)cc3)C(c3ccc(Cl)cc3)C2)c1` (stereo unspecified), the inhibition in [1] came out at 9.3%. Besides, the IC50 in series [2] came out at 6.5 µM. In [3], this compound came in with an inhibition at 7.5 µM of 45%. Also, the viability at 20 h, 7.5 µM in series [4] was determined as 91%.

Take `Oc1ccc(C2=NN(c3cccc(Cl)c3)C(c3cccc(Cl)c3)C2)cc1` (stereo unspecified): the inhibition in series [1] amounted to 29%. In addition, the Ratio IC50 in series [5] worked out at 10.2. Also, the IC50 in [2] amounted to 0.4 µM; in series [6] it was 4.1 µM. Further, the inhibition at 7.5 µM in series [3] amounted to 31.5%. Further, in series [4], the viability at 20 h, 7.5 µM was 86%.

On to `COc1cc(/C=C/C(=O)CC(=O)/C=C/c2ccc(O)c(OC)c2)ccc1O` [CURCUMIN], for which the IC50 in series [7] was found to be 0.8 µM. Also, the inhibition at 7.5 µM in series [3] turned out to be 97%.

On to `Oc1ccc(C2CC(c3ccccc3O)=NN2c2cccc(Cl)c2)cc1F` (stereo unspecified), for which half-maximal inhibition in series [7] (IC50) was put at 2.9 µM. In series [3], this compound had an inhibition at 7.5 µM of 86%.

As for `Oc1ccc(C2=NN(c3cccc(Cl)c3)C(c3ccc(O)c(F)c3)C2)c(O)c1` (stereo unspecified), the 50% inhibitory concentration (IC50) in series [7] is 3.1 µM; in series [2] it was less than 0.1 µM. In series [3], the inhibition at 7.5 µM is 87%.

With `Oc1ccc(C2=NN(c3ccc(Cl)cc3)C(c3ccc(Cl)cc3)C2)c(O)c1` (stereo unspecified), in series [1], the inhibition came to 14.8%. The Ratio IC50 in series [5] turned out to be 2.2. For the same compound, the IC50 in series [2] stood at 4.3 µM; in series [6] it was 9.7 µM. The compound further had an inhibition at 7.5 µM in series [3] of 31.4%. In [4], the viability at 20 h, 7.5 µM turned out to be 88%.

As for `Oc1ccc(C2=NN(c3ccccc3Cl)C(c3ccccc3Cl)C2)cc1` (stereo unspecified), the inhibition in [1] amounted to 30.5%. Besides, the inhibition at 7.5 µM in series [3] was determined as 34%. Besides, in series [4], the viability at 20 h, 7.5 µM came to 92%.

As for `Oc1ccc(C2=NN(c3ccc(Cl)cc3)C(c3ccc(Cl)cc3)C2)cc1` (stereo unspecified), the inhibition in series [1] amounted to 24.9%. This compound came in with an inhibition at 7.5 µM in [3] of 62.4%. Also, the viability at 20 h, 7.5 µM in series [4] was 99%.

Consider `Oc1ccc(C2=NN(c3ccc(Cl)cc3)C(c3ccc(Cl)cc3)C2)cc1O` (stereo unspecified), for which the inhibition worked out at 1% in series [8], 11% in [11], 27.6% in series [1] and 11% in series [17]. Moreover, the inhibition result in [9], in series [10], in [12], in series [13], in [14] and in [15] was “inactive” each time. The inhibition entry in series [16] was “inactive”. The compound further had an IC50 in series [7] of 0.3 µM. In [3], 7.5 µM produced 100% inhibition. Also, in [4], the viability at 20 h, 7.5 µM worked out at 94%.

Take `Oc1ccc(C2=NN(c3ccc(Cl)cc3)C(c3cccc(Cl)c3)C2)cc1` (stereo unspecified): in series [1], the inhibition came out at 18.6%. For the same compound, the IC50 in series [2] is less than 0.1 µM. Further, in series [3], at 7.5 µM the inhibition was 34%. In series [4], the viability at 20 h, 7.5 µM amounted to 96%.
